Measurements published in patent publication US9255093B2, “Polycyclic HERG activators” (NOVARTIS AG, priority 2014, dated 2016).
Marks after values point to notes of the source that are not given here.

Target: hERG (human ether-a-go-go-related gene) potassium channel (Homo sapiens, UniProt Q12809)
Test: QPatch automated patch-clamp hERG activator 4-concentration EC50 assay
Conditions: increase of hERG tail current amplitude at 7 second (TL7), hERG stably expressed in CHO cells

Sequence of hERG (human ether-a-go-go-related gene) potassium channel (Q12809 whole entry): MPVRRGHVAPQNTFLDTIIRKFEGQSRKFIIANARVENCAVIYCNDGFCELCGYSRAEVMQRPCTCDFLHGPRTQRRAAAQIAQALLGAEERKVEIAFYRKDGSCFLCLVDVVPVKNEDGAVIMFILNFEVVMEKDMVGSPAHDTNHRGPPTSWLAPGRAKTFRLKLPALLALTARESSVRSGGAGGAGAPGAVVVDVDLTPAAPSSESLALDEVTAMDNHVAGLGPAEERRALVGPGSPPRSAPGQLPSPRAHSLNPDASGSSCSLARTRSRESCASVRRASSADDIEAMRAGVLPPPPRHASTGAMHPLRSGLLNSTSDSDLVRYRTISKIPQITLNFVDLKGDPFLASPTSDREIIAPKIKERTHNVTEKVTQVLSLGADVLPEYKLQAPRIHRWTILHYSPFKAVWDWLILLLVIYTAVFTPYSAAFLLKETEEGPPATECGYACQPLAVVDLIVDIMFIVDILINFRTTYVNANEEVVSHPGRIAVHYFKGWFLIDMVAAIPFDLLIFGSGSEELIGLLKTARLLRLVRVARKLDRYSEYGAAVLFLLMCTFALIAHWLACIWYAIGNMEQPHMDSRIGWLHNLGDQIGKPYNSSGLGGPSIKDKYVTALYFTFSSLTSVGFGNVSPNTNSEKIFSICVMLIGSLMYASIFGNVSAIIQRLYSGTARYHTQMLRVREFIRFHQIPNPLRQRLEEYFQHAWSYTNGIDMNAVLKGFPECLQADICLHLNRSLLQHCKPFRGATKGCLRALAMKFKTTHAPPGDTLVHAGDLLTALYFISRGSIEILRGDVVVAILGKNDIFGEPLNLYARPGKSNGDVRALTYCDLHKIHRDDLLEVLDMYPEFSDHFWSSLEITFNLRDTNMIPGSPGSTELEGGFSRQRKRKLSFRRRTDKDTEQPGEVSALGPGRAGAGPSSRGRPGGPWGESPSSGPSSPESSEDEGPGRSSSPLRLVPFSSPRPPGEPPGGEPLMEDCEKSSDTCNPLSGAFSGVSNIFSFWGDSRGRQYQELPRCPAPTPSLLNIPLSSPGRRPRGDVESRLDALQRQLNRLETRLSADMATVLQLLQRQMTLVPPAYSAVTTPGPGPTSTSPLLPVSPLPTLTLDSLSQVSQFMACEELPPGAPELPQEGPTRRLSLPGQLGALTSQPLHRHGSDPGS

| Structure (SMILES) | % change@TL7@10 uM [%] | % change@TL7 (*@3.3 uM) (3.3 uM (footnote *)) |
| --- | --- | --- |
| Fc1c(CNc2cc(C(F)(F)F)c(Br)c(C(F)(F)F)c2)ccc2cc(-c3nnn[nH]3)oc12 [Example 151] | 308 | – |
| O=C(O)c1cc2ccc(CNc3ccc4c(c3)OCCO4)cc2o1 [Example 105] | 105 | – |
| Cc1c(-c2nnn[nH]2)oc2ccc(CNc3ccc(SC(F)(F)F)c(Cl)c3)cc12 [Example 70] | 200 | – |
| FC(F)Oc1ccc(NCc2cc3oc(-c4nnn[nH]4)cc3cc2Br)cc1C(F)(F)F [Example 156] | 356 | – |
| Brc1cccc(NCc2ccc3cc(-c4nn[nH]n4)oc3c2)c1 [Example 59] | 61 | – |
| O=C(O)c1cc2cc(F)c(CNc3ccc(OCC(F)(F)F)c(Cl)c3)cc2o1 [Example 225] | 138 | – |
| CCOc1ccc(NCc2cc3oc(-c4nnn[nH]4)cc3cc2Cl)cc1Cl [Example 217] | 116 | – |
| Fc1cc2cc(-c3nnn[nH]3)oc2cc1CNc1ccc(Cl)c(Cl)c1 [Example 208] | 285 | – |
| Fc1cc2cc(-c3nnn[nH]3)oc2cc1CNc1ccc(OCC(F)F)c(C(F)(F)F)c1 [Example 162] | 372 | – |
| O=C(O)c1cc2ccc(CNc3cc(F)c(F)c(Br)c3)cc2o1 [Example 106] | 90 | – |
| CCCc1ccc(NCc2ccc3cc(-c4nnn[nH]4)oc3c2)cc1C(F)(F)F [Example 16] | 521 | – |
| FC(F)(F)Oc1ccc(NCc2ccc3oc(-c4nnn[nH]4)cc3c2)cc1Cl [Example 65] | 284 | – |
| O=C(O)c1cc2ccc(CNc3ccc(SC(F)(F)F)c(C(F)(F)F)c3)cc2o1 [Example 91] | 226 | – |
| CCCc1ccc(NCc2ccc3oc(-c4nnn[nH]4)cc3c2)cc1C [Example 80] | 83 | – |
| FC(F)(F)Oc1ccc(NCc2ccc3c(C(F)(F)F)c(-c4nnn[nH]4)oc3c2)cc1Cl [Example 54] | 94 | – |
| Clc1cc2cc(-c3nnn[nH]3)oc2cc1CNc1cc(Cl)c(Cl)c(Cl)c1 [Example 15] | 162 | – |
| FC(F)(F)COc1ccc(NCc2cc3oc(-c4nnn[nH]4)cc3cc2Br)cc1C(F)(F)F [Example 164] | 308 | – |
| FC(F)(F)Oc1cc(NCc2cc3oc(-c4nnn[nH]4)cc3cc2Cl)ccc1Cl [Example 13] | 39 | – |
| FC(F)Oc1ccc(NCc2cc3cc(-c4nnn[nH]4)oc3cc2Cl)cc1C(F)(F)F [Example 134] | 217 | – |
| CCCc1cc(NCc2ccc3oc(C(=O)O)cc3c2)ccc1C(F)(F)F [Example 125] | 138 | – |
| O=C(O)c1cc2ccc(CNc3ccc(OCC(F)(F)F)c(Cl)c3)cc2o1 [Example 108] | 82 | – |
| CCc1ccc(NCc2ccc3cc(C(=O)O)oc3c2)cc1C(F)(F)F [Example 100] | 156 | – |
| CCOc1ccc(NCc2ccc3c(C(F)(F)F)c(-c4nnn[nH]4)oc3c2)cc1C(F)(F)F [Example 56] | 88 | – |
| Fc1ccc(NCc2cc3oc(-c4nnn[nH]4)cc3cc2F)cc1Cl [Example 215] | 132 | – |
| COc1cc(NCc2ccc3cc(-c4nn[nH]n4)oc3c2)cc(OC)c1OC [Example 62] | 43 | – |
| FC1(F)Oc2ccc(NCc3ccc4cc(-c5nn[nH]n5)oc4c3)cc2C(F)(F)O1 [Example 219] | 71 | – |

| Structure (SMILES) | % change@TL7@10 uM [%] | % change@TL7 (*@3.3 uM) (3.3 uM (footnote *)) |
| --- | --- | --- |
| CSc1ccc(NCc2ccc3cc(-c4nn[nH]n4)oc3c2)cc1C(F)(F)F [Example 26] | 267 | – |
| CCCc1c(C)cc(NCc2cc3oc(-c4nnn[nH]4)cc3cc2Cl)cc1Cl [Example 220] | 148 | – |
| CCCc1ccc(NCc2cc3cc(-c4nnn[nH]4)oc3cc2F)cc1C(F)(F)F [Example 128] | 142 | – |
| FC(F)(F)Oc1ccc(NCc2cc3oc(-c4nnn[nH]4)cc3cc2Cl)cc1C(F)(F)F [Example 6] | 264 | – |
| O=C(O)c1cc2ccc(CNc3ccc(OC(F)(F)F)c(OC(F)(F)F)c3)cc2o1 [Example 104] | 111 | – |
| CCOc1ccc(NCc2cc3oc(-c4nnn[nH]4)cc3cc2F)cc1Cl [Example 211] | 248 | – |
| CCCc1ccc(NCc2ccc3oc(C(=O)O)cc3c2)cc1Cl [Example 121] | 210 | – |
| Cc1nsc2ccc(NCc3ccc4cc(-c5nn[nH]n5)oc4c3)cc12 [Example 209] | 137 | – |
| Clc1cc(NNCc2ccc3cc(-c4nn[nH]n4)oc3c2)cc(Cl)c1Cl [Example 45] | 145 | – |
| CC(C)Oc1ccc(NCc2cc3oc(-c4nnn[nH]4)cc3cc2Br)cc1C(F)(F)F [Example 173] | 278 | – |
| CCCc1ccc(NCc2ccc3oc(-c4nnn[nH]4)cc3c2)cc1C(F)(F)F [Example 66] | 261 | – |
| Fc1ccc(NCc2cc3oc(-c4nnn[nH]4)cc3cc2Cl)cc1OC(F)(F)F [Example 9] | 78 | – |
| FC(F)(F)Oc1ccc(NCc2ccc3cc(-c4nn[nH]n4)oc3c2)cc1OC(F)(F)F [Example 41] | 160 | – |
| CCCc1ccc(NCc2cc3oc(-c4nnn[nH]4)cc3cc2F)cc1F [Example 190] | 167 | – |
| CCc1ccc(NCc2ccc3oc(-c4nnn[nH]4)cc3c2)cc1C(F)(F)F [Example 78] | 108 | – |
| CCCc1ccc(NCc2ccc3oc(-c4nnn[nH]4)cc3c2)cc1Cl [Example 71] | 193 | – |
| FC1(F)Oc2ccc(NCc3ccc4oc(-c5nnn[nH]5)cc4c3)cc2O1 [Example 67] | 247 | – |
| CCOc1c(Cl)cc(NCc2cc3oc(-c4nnn[nH]4)cc3cc2Cl)cc1Cl [Example 5] | 146 | – |
| FC(F)(F)COc1ccc(NCc2ccc3cc(-c4nnn[nH]4)oc3c2Cl)cc1C(F)(F)F [Example 187] | 230 | – |
| CCOc1ccc(NCc2cc3oc(-c4nnn[nH]4)cc3cc2Br)cc1C(F)(F)F [Example 178] | 262 | – |
| CCCc1ccc(NCc2ccc3cc(-c4nnn[nH]4)oc3c2)cc1Br [Example 42] | 159 | – |
| Fc1cc(NCc2ccc3cc(-c4nn[nH]n4)oc3c2)cc(Br)c1F [Example 35] | 180 | – |
| FC(F)(F)Oc1ccc(NCc2ccc3oc(-c4nn[nH]n4)cc3c2)cc1Br [Example 149] | 335 | – |
| Fc1cc(NCc2cc3oc(-c4nnn[nH]4)cc3cc2F)ccc1Cl [Example 214] | 138 | – |
| O=C(O)c1cc2ccc(CNc3ccc(N4CCOCC4)c(Br)c3)cc2o1 [Example 98] | 158 | – |
| CCCc1ccc(NCc2ccc3oc(C(=O)O)cc3c2)cc1C(F)(F)F [Example 122] | 184 | – |

| Structure (SMILES) | % change@TL7@10 uM [%] | % change@TL7 (*@3.3 uM) (3.3 uM (footnote *)) |
| --- | --- | --- |
| FC(F)(F)Oc1ccc(NCc2ccc3c(-c4nn[nH]n4)coc3c2)cc1Br [Example 233] | – | 202* % |
| Fc1cc2oc(-c3nnn[nH]3)cc2cc1CNc1ccc(OCC(F)(F)F)c(C(F)(F)F)c1 [Example 127] | 268 | – |
| Clc1ccc(NCc2ccc3cc(-c4nn[nH]n4)oc3c2)cc1 [Example 33] | 192 | – |
| O=C(O)c1cc2ccc(CNc3ccc4c(c3)OC(F)(F)O4)cc2o1 [Example 89] | 270 | – |
| O=C(O)c1cc2cc(F)c(CNc3ccc(OC(F)(F)F)c(Cl)c3)cc2o1 [Example 226] | 182 | – |
| Fc1cc2oc(-c3nnn[nH]3)cc2cc1CNc1cc(C(F)(F)F)c(Br)c(C(F)(F)F)c1 [Example 133] | 326 | – |
| FC(F)(F)COc1ccc(NCc2cc3cc(-c4nnn[nH]4)oc3cc2Cl)cc1C(F)(F)F [Example 135] | 181 | – |
| N#CCOc1ccc(NCc2cc3oc(-c4nnn[nH]4)cc3cc2Br)cc1C(F)(F)F [Example 155] | 370 | – |
| CCOc1ccc(NCc2ccc3cc(-c4nnn[nH]4)oc3c2Cl)cc1C(F)(F)F [Example 206] | 160 | – |
| C=C(C)c1cc(NCc2ccc3cc(-c4nn[nH]n4)oc3c2)ccc1OC(F)(F)F [Example 11] | 129 | – |
| O=C(O)c1cc2cc(F)c(CNc3cc(C(F)(F)F)c(Br)c(C(F)(F)F)c3)cc2o1 [Example 229] | 424 | – |
| Cc1nc2cc(NCc3ccc4cc(C(=O)O)oc4c3)ccc2s1 [Example 114] | 45 | – |
| O=C(O)c1cc2cc(F)c(CNc3ccc(OC(F)(F)F)c(Br)c3)cc2o1 [Example 227] | 188 | – |
| O=C(O)c1cc2ccc(CNc3cc(Cl)nc(Cl)c3)cc2o1 [Example 119] | 22 | – |
| CCOc1ccc(NCc2ccc3cc(-c4nn[nH]n4)oc3c2)cc1Br [Example 172] | 284 | – |
| COc1ccc(NCc2ccc3cc(-c4nn[nH]n4)oc3c2)cc1Br [Example 174] | 273 | – |
| Cc1cc(NCc2cc3oc(-c4nnn[nH]4)cc3cc2Cl)cc(C(F)(F)F)c1 [Example 213] | 144 | – |
| CCCc1ccc(NCc2ccc3c(C(F)(F)F)c(-c4nnn[nH]4)oc3c2)cc1C(F)(F)F [Example 55] | 90 | – |
| FC(F)Oc1ccc(NCc2ccc3c(C(F)(F)F)c(-c4nnn[nH]4)oc3c2)cc1C(F)(F)F [Example 60] | 58 | – |
| CCOc1c(Cl)cc(NCc2ccc3c(C(F)(F)F)c(-c4nnn[nH]4)oc3c2)cc1Cl [Example 49] | 106 | – |
| Cc1cc2cc(-c3nnn[nH]3)oc2cc1CNc1ccc(OCC(F)(F)F)c(C(F)(F)F)c1 [Example 170] | 299 | – |
| O=C(c1ccc(NCc2ccc3cc(-c4nnn[nH]4)oc3c2)cc1)C(F)(F)F [Example 30] | 228 | – |
| CC(C)COc1ccc(NCc2ccc3cc(-c4nn[nH]n4)oc3c2)cc1Br [Example 216] | 88 | – |
| FC(F)COc1ccc(NCc2cc3oc(-c4nnn[nH]4)cc3cc2Cl)cc1C(F)(F)F [Example 157] | 350 | – |
| Clc1cc(NCc2ccc3cc(-c4nn[nH]n4)oc3c2)cc(Cl)c1Cl [Example 19] | 394 | – |
| Fc1cc(CNc2ccc(OCC(F)(F)F)c(C(F)(F)F)c2)cc2cc(-c3nnn[nH]3)oc12 [Example 147] | 151 | – |
